Measured values: the NIST ThermoML archive (doi:10.1016/j.jct.2012.03.003)

Test: xn = mol fraction of the nth substance listed
Conditions: Liquid, Vibrating tube method

COc1cc2c(cc1O)CC1c3c(cc(O)c(OC)c3-2)CCN1C (stereo not given) [boldine] + CCO
Conditions	mass density [kg/m3]
352.81 K, 16000 kPa, x1 = 0.0012	755.72
352.81 K, 16000 kPa, x1 = 0.0136	781.95
352.81 K, 17000 kPa, x1 = 0.0012	756.73
352.81 K, 17000 kPa, x1 = 0.0136	782.94
352.81 K, 18000 kPa, x1 = 0.0012	757.73
352.81 K, 18000 kPa, x1 = 0.0136	783.9
352.81 K, 19000 kPa, x1 = 0.0012	758.72
352.81 K, 19000 kPa, x1 = 0.0136	784.85
352.81 K, 20000 kPa, x1 = 0.0012	759.69
352.81 K, 20000 kPa, x1 = 0.0136	785.8
352.82 K, 1000 kPa, x1 = 0.0267	792.92
352.82 K, 2000 kPa, x1 = 0.0267	794.02
352.82 K, 3000 kPa, x1 = 0.0267	795.11
352.82 K, 4000 kPa, x1 = 0.0267	796.19
352.82 K, 5000 kPa, x1 = 0.0267	797.27
352.82 K, 6000 kPa, x1 = 0.0267	798.34
352.82 K, 7000 kPa, x1 = 0.0267	799.39
352.82 K, 8000 kPa, x1 = 0.0267	800.44
352.82 K, 9000 kPa, x1 = 0.0267	801.49
352.82 K, 10000 kPa, x1 = 0.0267	802.51
352.82 K, 11000 kPa, x1 = 0.0267	803.53
352.82 K, 12000 kPa, x1 = 0.0267	804.54
352.82 K, 13000 kPa, x1 = 0.0267	805.54
352.82 K, 14000 kPa, x1 = 0.0267	806.51
352.82 K, 15000 kPa, x1 = 0.0267	807.49
352.82 K, 16000 kPa, x1 = 0.0267	808.44
352.82 K, 17000 kPa, x1 = 0.0267	809.38
352.82 K, 18000 kPa, x1 = 0.0267	810.32
352.82 K, 19000 kPa, x1 = 0.0267	811.24
352.82 K, 20000 kPa, x1 = 0.0267	812.14
352.88 K, 1000 kPa, x1 = 0.0074	751.94
352.88 K, 2000 kPa, x1 = 0.0074	753.18
352.88 K, 3000 kPa, x1 = 0.0074	754.29
352.88 K, 4000 kPa, x1 = 0.0074	755.45
352.88 K, 5000 kPa, x1 = 0.0074	756.6
352.88 K, 6000 kPa, x1 = 0.0074	757.75
352.88 K, 7000 kPa, x1 = 0.0074	758.88
352.88 K, 8000 kPa, x1 = 0.0074	760.01
352.88 K, 9000 kPa, x1 = 0.0074	761.12
352.88 K, 10000 kPa, x1 = 0.0074	762.21
352.88 K, 11000 kPa, x1 = 0.0074	763.3
352.88 K, 12000 kPa, x1 = 0.0074	764.38
352.88 K, 13000 kPa, x1 = 0.0074	765.43
352.88 K, 14000 kPa, x1 = 0.0074	766.48
352.88 K, 15000 kPa, x1 = 0.0074	767.51
352.88 K, 16000 kPa, x1 = 0.0074	768.53
352.88 K, 17000 kPa, x1 = 0.0074	769.53
352.88 K, 18000 kPa, x1 = 0.0074	770.52
352.88 K, 19000 kPa, x1 = 0.0074	771.48
352.88 K, 20000 kPa, x1 = 0.0074	772.43
362.76 K, 1000 kPa, x1 = 0.0196	770.85
362.76 K, 2000 kPa, x1 = 0.0196	772.05
362.76 K, 3000 kPa, x1 = 0.0196	773.24
362.76 K, 4000 kPa, x1 = 0.0196	774.43
362.76 K, 5000 kPa, x1 = 0.0196	775.6
362.76 K, 6000 kPa, x1 = 0.0196	776.76
362.76 K, 7000 kPa, x1 = 0.0196	777.92
362.76 K, 8000 kPa, x1 = 0.0196	779.06
362.76 K, 9000 kPa, x1 = 0.0196	780.2
362.76 K, 10000 kPa, x1 = 0.0196	781.28
362.76 K, 11000 kPa, x1 = 0.0196	782.39
362.76 K, 12000 kPa, x1 = 0.0196	783.48
362.76 K, 13000 kPa, x1 = 0.0196	784.55
362.76 K, 14000 kPa, x1 = 0.0196	785.61
362.76 K, 15000 kPa, x1 = 0.0196	786.65
362.76 K, 16000 kPa, x1 = 0.0196	787.68
362.76 K, 17000 kPa, x1 = 0.0196	788.71
362.76 K, 18000 kPa, x1 = 0.0196	789.69
362.76 K, 19000 kPa, x1 = 0.0196	790.66
362.76 K, 20000 kPa, x1 = 0.0196	791.63
362.77 K, 1000 kPa, x1 = 0.0136	755.74
362.77 K, 1000 kPa, x1 = 0.0267	783.02
362.77 K, 2000 kPa, x1 = 0.0136	756.99
362.77 K, 2000 kPa, x1 = 0.0267	784.19
362.77 K, 3000 kPa, x1 = 0.0136	758.22
362.77 K, 3000 kPa, x1 = 0.0267	785.37
362.77 K, 4000 kPa, x1 = 0.0136	759.44
362.77 K, 4000 kPa, x1 = 0.0267	786.53
362.77 K, 5000 kPa, x1 = 0.0136	760.66
362.77 K, 5000 kPa, x1 = 0.0267	787.67
362.77 K, 6000 kPa, x1 = 0.0136	761.86
362.77 K, 6000 kPa, x1 = 0.0267	788.81
362.77 K, 7000 kPa, x1 = 0.0136	763.05
362.77 K, 7000 kPa, x1 = 0.0267	789.94
362.77 K, 8000 kPa, x1 = 0.0136	764.22
362.77 K, 8000 kPa, x1 = 0.0267	791.05
362.77 K, 9000 kPa, x1 = 0.0136	765.39
362.77 K, 9000 kPa, x1 = 0.0267	792.16
362.77 K, 10000 kPa, x1 = 0.0136	766.54
362.77 K, 10000 kPa, x1 = 0.0267	793.25
362.77 K, 11000 kPa, x1 = 0.0136	767.67
362.77 K, 11000 kPa, x1 = 0.0267	794.34
362.77 K, 12000 kPa, x1 = 0.0136	768.79
362.77 K, 12000 kPa, x1 = 0.0267	795.38
362.77 K, 13000 kPa, x1 = 0.0136	769.9
362.77 K, 13000 kPa, x1 = 0.0267	796.43
362.77 K, 14000 kPa, x1 = 0.0136	770.98
362.77 K, 14000 kPa, x1 = 0.0267	797.48
362.77 K, 15000 kPa, x1 = 0.0136	772.08
362.77 K, 15000 kPa, x1 = 0.0267	798.5
362.77 K, 16000 kPa, x1 = 0.0136	773.14
362.77 K, 16000 kPa, x1 = 0.0267	799.5
362.77 K, 17000 kPa, x1 = 0.0136	774.19
362.77 K, 17000 kPa, x1 = 0.0267	800.5
362.77 K, 18000 kPa, x1 = 0.0136	775.2
362.77 K, 18000 kPa, x1 = 0.0267	801.48
362.77 K, 19000 kPa, x1 = 0.0136	776.22
362.77 K, 19000 kPa, x1 = 0.0267	802.44
362.77 K, 20000 kPa, x1 = 0.0136	777.21
362.77 K, 20000 kPa, x1 = 0.0267	803.41
362.78 K, 1000 kPa, x1 = 0.0012	728.71
362.78 K, 2000 kPa, x1 = 0.0012	730.01
362.78 K, 3000 kPa, x1 = 0.0012	731.31
362.78 K, 4000 kPa, x1 = 0.0012	732.6
362.78 K, 5000 kPa, x1 = 0.0012	733.87
362.78 K, 6000 kPa, x1 = 0.0012	735.12
362.78 K, 7000 kPa, x1 = 0.0012	736.36
362.78 K, 8000 kPa, x1 = 0.0012	737.59
362.78 K, 9000 kPa, x1 = 0.0012	738.8
362.78 K, 10000 kPa, x1 = 0.0012	739.99
362.78 K, 11000 kPa, x1 = 0.0012	741.18
362.78 K, 12000 kPa, x1 = 0.0012	742.33
362.78 K, 13000 kPa, x1 = 0.0012	743.48
362.78 K, 14000 kPa, x1 = 0.0012	744.62
362.78 K, 15000 kPa, x1 = 0.0012	745.73
362.78 K, 16000 kPa, x1 = 0.0012	746.83
362.78 K, 17000 kPa, x1 = 0.0012	747.9
362.78 K, 18000 kPa, x1 = 0.0012	748.97
362.78 K, 19000 kPa, x1 = 0.0012	750.01
362.78 K, 20000 kPa, x1 = 0.0012	751.05
362.87 K, 1000 kPa, x1 = 0.0074	741.96
362.87 K, 2000 kPa, x1 = 0.0074	743.24
362.87 K, 3000 kPa, x1 = 0.0074	744.5
362.87 K, 4000 kPa, x1 = 0.0074	745.75
362.87 K, 5000 kPa, x1 = 0.0074	746.98
362.87 K, 6000 kPa, x1 = 0.0074	748.21
362.87 K, 7000 kPa, x1 = 0.0074	749.43
362.87 K, 8000 kPa, x1 = 0.0074	750.63
362.87 K, 9000 kPa, x1 = 0.0074	751.81
362.87 K, 10000 kPa, x1 = 0.0074	752.98
362.87 K, 11000 kPa, x1 = 0.0074	754.12
362.87 K, 12000 kPa, x1 = 0.0074	755.27
362.87 K, 13000 kPa, x1 = 0.0074	756.39
362.87 K, 14000 kPa, x1 = 0.0074	757.5
362.87 K, 15000 kPa, x1 = 0.0074	758.59
362.87 K, 16000 kPa, x1 = 0.0074	759.65
362.87 K, 17000 kPa, x1 = 0.0074	760.72
362.87 K, 18000 kPa, x1 = 0.0074	761.76
362.87 K, 19000 kPa, x1 = 0.0074	762.79
362.87 K, 20000 kPa, x1 = 0.0074	763.81
